Patent US10757937B2, “Sulfonamides that activate ABA receptors” (The Regents of the University of California, priority 2014, dated 2020)
Where two headings read alike, the source gives them in different places.

Assays:
[1] = biological target: T1, PYL4 (Arabidopsis thaliana, UniProt O80920); assay: receptor-mediated PP2C (HAB1) inhibition in vitro assay; assay type: biochemical; settings: compound at 25 μM; control without agonist = 100%
T1 construct: 6X-His; made in house; host or cells: E. coli BL21[DE3]pLysS
T1 sequence (O80920 1-207): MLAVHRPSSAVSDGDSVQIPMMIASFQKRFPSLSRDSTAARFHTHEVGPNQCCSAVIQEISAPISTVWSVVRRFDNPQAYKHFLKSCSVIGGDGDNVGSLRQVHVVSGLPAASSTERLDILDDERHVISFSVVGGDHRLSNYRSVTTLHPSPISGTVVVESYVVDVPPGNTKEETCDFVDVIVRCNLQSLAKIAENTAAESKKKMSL
T1 sequence (Q9CAJ0 23-511 partner): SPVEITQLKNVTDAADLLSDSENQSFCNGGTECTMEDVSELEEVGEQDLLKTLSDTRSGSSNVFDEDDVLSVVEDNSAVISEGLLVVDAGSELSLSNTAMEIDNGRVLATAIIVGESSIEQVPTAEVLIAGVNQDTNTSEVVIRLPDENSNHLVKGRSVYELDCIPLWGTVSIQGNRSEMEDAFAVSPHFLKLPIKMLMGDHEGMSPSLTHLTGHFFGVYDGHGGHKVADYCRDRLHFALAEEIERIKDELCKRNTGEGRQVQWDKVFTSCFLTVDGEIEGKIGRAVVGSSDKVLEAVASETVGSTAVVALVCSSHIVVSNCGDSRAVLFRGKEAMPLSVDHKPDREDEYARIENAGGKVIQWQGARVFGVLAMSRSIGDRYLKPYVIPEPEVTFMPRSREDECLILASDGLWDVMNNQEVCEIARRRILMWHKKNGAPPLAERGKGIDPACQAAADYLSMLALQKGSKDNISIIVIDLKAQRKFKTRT
Method: (§1) A family of 62 structurally related N-acyl sulfonamides (Tables I-V) were tested for ABA agonist activity using multiple receptor-mediated PP2C inhibition in vitro assays (Park et al., 2009). […] The constructs utilized for protein expression have been previously described (Okamoto et al. 2013). For constructs encoding 6X-His-fusion proteins (all receptors except PYL11), the coding sequences were of the receptors were cloned in the vector pET28, expressed in BL21[DE3]pLysS E. coli host cells at 18° C. overnight, and subsequently purified from sonicated lysates using Ni-NTA agarose (Qiagen, USA), according to the manufacturer's instructions. PYL11 was constructed as a maltose binding protein fusion in the vector pMAL-c, expressed in BL21┌DE3┐pLysS host cells and purified using amylose resin (New England Biolabs) as described by the manufacturer. Recombinant GST-HAB1 was expressed and purified as described previously (Park et al., 2009). PP2C activity assays were conducted using the fluorogenic phosphatase substrate 4-methylumbelliferyl-phosphate. Recombinant receptors and HAB1 were used to examine ligand-induced PP2C inactivation in response to multiple test compounds. Enzyme inhibition assays were conducted using the following assay conditions: 50 nM GST-PP2C, 100 mM Tris-OAc (pH 7.9), 100 mM NaCl, 1 mM MnCl2, 1% β-mercaptoethanol. […] Because of this, the ratio of each receptor used in the PP2C-inhibitions assays was established empirically as the minimum fold-excess of receptor required to elicit maximal PP2C inhibition at a saturating ABA concentration (10 μM).
(§2) Based on this criterion, we used a ratio of 2:1 receptor in the assays described herein.
(§3) Using the above assay conditions, compounds were tested at 25 μM for agonist activity on PYL4, PYL5, PYL8 and PYL9. […] Consequently, a subset of the compounds was tested at multiple concentrations against 11 receptors so that IC50 values and receptor selectivity profiles could be examined. […] Thus, the N-acylsulfonamide agonists disclosed are selective for monomeric receptors.
(§4) Additional compounds were tested for biological activity following the procedures of Example 1 with minor modifications.
(§5) For these in vitro receptor assays, the compounds listed were tested in in vitro PP2C inhibition assays with 50 uM of the test compound except for ABA (10 uM). IC50s were calculated from dose curves, but only for selected compounds.

[2] = biological target: T2, PYL5 (Arabidopsis thaliana, UniProt Q9FLB1); assay: as above; assay type: biochemical
T2 construct: 6X-His; made in house; host or cells: E. coli BL21[DE3]pLysS
T2 sequence (Q9FLB1 1-203): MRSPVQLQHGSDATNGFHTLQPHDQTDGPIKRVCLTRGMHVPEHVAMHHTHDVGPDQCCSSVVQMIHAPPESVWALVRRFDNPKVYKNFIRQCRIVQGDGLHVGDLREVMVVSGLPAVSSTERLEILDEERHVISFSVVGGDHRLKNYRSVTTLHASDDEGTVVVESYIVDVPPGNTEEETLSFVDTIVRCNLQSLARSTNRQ
T2 sequence (Q9CAJ0 23-511 partner): T1 sequence (Q9CAJ0 23-511 partner)
Method: as §1, §2, §3, §4, §5

[3] = biological target: T3, PYL8 (Arabidopsis thaliana, UniProt Q9FGM1); assay: as above; assay type: biochemical
T3 construct: 6X-His; made in house; host or cells: E. coli BL21[DE3]pLysS
T3 sequence (Q9FGM1 1-188): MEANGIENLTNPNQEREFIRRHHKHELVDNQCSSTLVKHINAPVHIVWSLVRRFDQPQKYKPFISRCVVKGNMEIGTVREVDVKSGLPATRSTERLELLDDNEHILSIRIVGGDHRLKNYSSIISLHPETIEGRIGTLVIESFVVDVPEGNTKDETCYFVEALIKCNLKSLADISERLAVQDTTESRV
T3 sequence (Q9CAJ0 23-511 partner): T1 sequence (Q9CAJ0 23-511 partner)
Method: as §1, §2, §3, §4, §5

[4] = biological target: T4, PYL9 (Arabidopsis thaliana, UniProt Q84MC7); assay: as above; assay type: biochemical
T4 construct: 6X-His; made in house; host or cells: E. coli BL21[DE3]pLysS
T4 sequence (Q84MC7 1-187): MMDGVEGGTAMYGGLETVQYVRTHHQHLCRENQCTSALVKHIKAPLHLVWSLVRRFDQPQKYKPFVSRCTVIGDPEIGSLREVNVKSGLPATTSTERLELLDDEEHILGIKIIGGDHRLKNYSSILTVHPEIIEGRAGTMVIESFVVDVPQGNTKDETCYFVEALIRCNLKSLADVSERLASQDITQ
T4 sequence (Q9CAJ0 23-511 partner): T1 sequence (Q9CAJ0 23-511 partner)
Method: as §1, §2, §3, §4, §5

[5] = biological target: T5, PYL6 (Arabidopsis thaliana, UniProt Q8S8E3); assay: as above; assay type: biochemical; settings: Table VII; read-out: PP2C Dose Curves PYL6 (IC50)
T5 construct: 6X-His; made in house; host or cells: E. coli BL21[DE3]pLysS
T5 sequence (Q8S8E3 1-215): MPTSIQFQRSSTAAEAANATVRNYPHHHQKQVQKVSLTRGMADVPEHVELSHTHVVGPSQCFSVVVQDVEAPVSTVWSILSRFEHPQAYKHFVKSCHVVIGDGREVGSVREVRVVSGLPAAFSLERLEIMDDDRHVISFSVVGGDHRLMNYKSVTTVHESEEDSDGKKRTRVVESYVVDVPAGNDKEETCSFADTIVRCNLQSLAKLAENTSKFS
T5 sequence (Q9CAJ0 23-511 partner): T1 sequence (Q9CAJ0 23-511 partner)
Method: as §1, §2, §3, §4, §5

[6] = biological target: T6, PYL11 (Arabidopsis thaliana, UniProt Q9FJ50); assay: as above; assay type: biochemical; settings: Table VII; read-out: PP2C Dose Curves PYL11 (IC50)
T6 construct: made in house; host or cells: E. coli BL21[DE3]pLysS
T6 sequence (Q9FJ50 1-161): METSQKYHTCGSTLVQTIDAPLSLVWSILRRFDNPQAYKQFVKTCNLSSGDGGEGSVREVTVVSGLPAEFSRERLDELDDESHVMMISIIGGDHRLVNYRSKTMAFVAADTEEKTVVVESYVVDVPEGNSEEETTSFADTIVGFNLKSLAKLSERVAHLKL
T6 sequence (Q9CAJ0 23-511 partner): T1 sequence (Q9CAJ0 23-511 partner)
Method: as §1, §2, §3, §4, §5

[7] = tested on: Arabidopsis seed germination and hypocotyl growth; assay: Arabidopsis seed germination and hypocotyl growth; assay type: in vivo; settings: − = none; for Hypocotyl Growth Inhibition: lowest concentration that inhibited hypocotyl growth in wells where seeds germinated; for minimal effective concentration: Table VIII, tested at 10 or 50 μM, lowest inhibiting concentration
Method: We germinated seeds from wild type on ½× strength Murashige and Skoog salts growth medium containing either 10 or 50 μM for all 62 compounds as well as 1 μM (+)-ABA and mock controls. […] To investigate if the any of the compounds are sufficient to control vegetative ABA responses, we treated three week old Arabidopsis plants with aqueous solutions containing 0.02% Silwet and either 50 μM of selected N-acylsulfonamides, 50 μM ABA or 0.1% DMSO (the carrier solvent for the compounds tested). The leaf temperatures were subsequently examined using a thermal imaging camera 24 hours after treatment. It is well known that ABA-induced guard cell closure reduces transpiration, which leads to increases in leaf temperatures. It has been estimated that a 1° C. increase in leaf temperature correlates with a decrease in transpiration rates by approximately 50% (Sirault et al., 2009). Since guard cell aperture is the primary determinant of transpiration rates, thermal imaging is a useful way to indirectly infer relative transpiration rates and, indirectly, relative degrees of guard cell opening at the whole plant level.
as §4
For the germination inhibition experiment, the compounds were tested at 10 and 50 uM. The amounts shown are the lowest of the two concentrations that either inhibited germination or hypocotyl growth in wells where seeds germinated.
For the germination test, the compounds were tested at 1, 5, 10, 25 and 50 uM. The amounts shown are the lowest of the concentrations that either inhibited germination or hypocotyl growth in the wells where seeds germinated.

[8] = compound at 25 μM, control without agonist = 100%
[9] = Germination Inhibition II, tested at 10 and 50 uM
[10] = read-out: Hypocotyl Growth Inhibition

remaining activity at 25 µM [1]	IC50 ([2]; Table VII, read-out: PP2C Dose Curves PYL5 (IC50))	remaining activity at 25 µM [2, 8]	IC50 ([3]; Table VII, read-out: PP2C Dose Curves PYL8 (IC50))	remaining activity at 25 µM [3, 8]	IC50 ([4]; Table VII, read-out: PP2C Dose Curves PYL9 (IC50))	remaining activity at 25 µM [4, 8]	IC50 [5]	IC50 [6]	PP2C Activity (25 μm) PYL4 [1]	PP2C Activity (25 μm) PYL5 [2, 8]	PP2C Activity (25 μm) PYL8 [3, 8]	PP2C Activity (25 μm) PYL9 [4, 8]	SMILES	Hypocotyl Growth Inhibition [7, 9]	minimal effective concentration [7, 10]	Germination Inhibition ([7]; Germination Inhibition II, tested at 10 and 50 uM, lowest of the two concentrations that inhibited)	minimal effective concentration ([7]; ABA at 1 μM, read-out: Germination Inhibition)
95%	7.06 µM	24%	111 µM	73%	39.6 µM	55%	15.3 µM	18.5 µM					N#Cc1ccc(CS(=O)(=O)NC(=O)C2(c3cccc(F)c3)CC2)cc1 [Compound 46]				
									92%	43%	62%	47%	Cc1ccc(C(C)(C)C(=O)NS(=O)(=O)Cc2ccc(C#N)cc2)cc1 [Compound 12]	50 µM	50 µM		
									89%	86%	83%	61%	CC(C)(C(=O)NS(=O)(=O)Cc1ccccc1)c1ccccc1 [Compound 5]	50 µM	50 µM		

SMILES	remaining activity at 25 µM [1]	IC50 ([2]; Table VII, read-out: PP2C Dose Curves PYL5 (IC50))	remaining activity at 25 µM [2, 8]	IC50 ([3]; Table VII, read-out: PP2C Dose Curves PYL8 (IC50))	remaining activity at 25 µM [3, 8]	IC50 ([4]; Table VII, read-out: PP2C Dose Curves PYL9 (IC50))	remaining activity at 25 µM [4, 8]	IC50 [5]	IC50 [6]	PP2C Activity (25 μm) PYL4 [1]	PP2C Activity (25 μm) PYL5 [2, 8]	PP2C Activity (25 μm) PYL8 [3, 8]	PP2C Activity (25 μm) PYL9 [4, 8]	Hypocotyl Growth Inhibition [7, 9]	minimal effective concentration [7, 10]	Germination Inhibition ([7]; Germination Inhibition II, tested at 10 and 50 uM, lowest of the two concentrations that inhibited)	minimal effective concentration ([7]; ABA at 1 μM, read-out: Germination Inhibition)
COc1ccc(C2(C(=O)NS(=O)(=O)Cc3ccc(C#N)cc3)CCCC2)cc1 [Compound 39]										98%	110%	71%	66%	10 µM	10 µM	50 µM	50 µM
